Test results published in PMC10836395, “Investigation of how gate residues in the main channel affect the catalytic activity of Scytalidium thermophilum catalase” (Acta Crystallographica. Section D, Structural Biology, 2024).
Changes are numbered by the printed parent chain. Marks after values point to notes of the source that are not given here.

Key:
CATPO T188A variant = CATPO T188A variant (Scytalidium thermophilum (Humicola insolens), UniProt M4GGR5, T207A); type: biochemical
CATPO T188F variant [1] = target: T1, CATPO T188F variant (Scytalidium thermophilum (Humicola insolens), UniProt M4GGR5, T207F); assay: biochemical
T1 sequence (M4GGR5 entry or part of it T207F): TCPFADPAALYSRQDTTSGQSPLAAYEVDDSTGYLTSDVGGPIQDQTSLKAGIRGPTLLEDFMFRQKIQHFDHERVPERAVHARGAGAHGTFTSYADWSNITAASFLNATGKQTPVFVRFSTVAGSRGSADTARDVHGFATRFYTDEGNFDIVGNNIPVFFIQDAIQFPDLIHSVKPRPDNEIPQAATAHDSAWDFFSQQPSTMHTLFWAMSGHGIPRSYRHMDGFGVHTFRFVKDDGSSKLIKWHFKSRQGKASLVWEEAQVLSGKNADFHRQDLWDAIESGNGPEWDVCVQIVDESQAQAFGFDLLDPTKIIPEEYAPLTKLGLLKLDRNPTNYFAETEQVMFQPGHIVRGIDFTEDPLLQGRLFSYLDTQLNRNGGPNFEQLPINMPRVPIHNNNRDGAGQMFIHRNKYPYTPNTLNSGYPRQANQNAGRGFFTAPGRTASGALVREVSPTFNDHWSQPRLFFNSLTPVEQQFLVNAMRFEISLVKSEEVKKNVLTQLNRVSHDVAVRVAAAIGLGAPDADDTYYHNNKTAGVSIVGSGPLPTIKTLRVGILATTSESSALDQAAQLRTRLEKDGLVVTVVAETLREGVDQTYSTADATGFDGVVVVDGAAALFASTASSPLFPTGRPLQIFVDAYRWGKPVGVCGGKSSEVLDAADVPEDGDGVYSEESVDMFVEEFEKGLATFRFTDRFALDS

CATPO [2] = target: T2, CATPO (Scytalidium thermophilum (Humicola insolens), UniProt M4GGR5); assay: Inhibition of catechol oxidation; type: biochemical; conditions: catechol oxidation by CATPO; catechol 1 to 100 mM; read-out: K i
T2 sequence (M4GGR5 entry or part of it): as the sequence (M4GGR5 entry or part of it T207F) above

CATPO T188F variant [3] = target: T1, CATPO T188F variant; type: biochemical
CATPO E484I variant [4] = target: T3, CATPO E484I variant (Scytalidium thermophilum (Humicola insolens), UniProt M4GGR5, E503I); assay: biochemical
T3 sequence (M4GGR5 entry or part of it E503I): as the sequence (M4GGR5 entry or part of it T207F) above

CATPO E484D variant [5] = target: T4, CATPO E484D variant (Scytalidium thermophilum (Humicola insolens), UniProt M4GGR5, E503D); type: biochemical
T4 sequence (M4GGR5 entry or part of it E503D): as the sequence (M4GGR5 entry or part of it T207F) above

CATPO E484A variant [6] = target: T5, CATPO E484A variant (Scytalidium thermophilum (Humicola insolens), UniProt M4GGR5, E503A); assay: Substrate-specificity analysis of the phenol oxidase activity; type: biochemical
T5 sequence (M4GGR5 entry or part of it E503A): as the sequence (M4GGR5 entry or part of it T207F) above

CATPO E484I variant [7] = target: T3, CATPO E484I variant; type: biochemical
CATPO T188I variant = CATPO T188I variant (Scytalidium thermophilum (Humicola insolens), UniProt M4GGR5, T207I); assay: biochemical
CATPO T188I variant, sequence (M4GGR5 entry or part of it T207I): as the sequence (M4GGR5 entry or part of it T207F) above

E484A = target: T6, E484A (Mycothermus thermophilus, UniProt M4GGR5, E503A); assay: Spectrophotometric phenol oxidase assay without H2O2 at pH 7.0 and 60 °C, initial rates fitted to the Michaelis-Menten equation.; type: biochemical; conditions: read-out: Phenol oxidase K m; n = 3
T6 construct: recombinant, pET-28-TEV-CATPO; contains heme b; Rz 0.8
T6 sequence (M4GGR5 20-717 E503A): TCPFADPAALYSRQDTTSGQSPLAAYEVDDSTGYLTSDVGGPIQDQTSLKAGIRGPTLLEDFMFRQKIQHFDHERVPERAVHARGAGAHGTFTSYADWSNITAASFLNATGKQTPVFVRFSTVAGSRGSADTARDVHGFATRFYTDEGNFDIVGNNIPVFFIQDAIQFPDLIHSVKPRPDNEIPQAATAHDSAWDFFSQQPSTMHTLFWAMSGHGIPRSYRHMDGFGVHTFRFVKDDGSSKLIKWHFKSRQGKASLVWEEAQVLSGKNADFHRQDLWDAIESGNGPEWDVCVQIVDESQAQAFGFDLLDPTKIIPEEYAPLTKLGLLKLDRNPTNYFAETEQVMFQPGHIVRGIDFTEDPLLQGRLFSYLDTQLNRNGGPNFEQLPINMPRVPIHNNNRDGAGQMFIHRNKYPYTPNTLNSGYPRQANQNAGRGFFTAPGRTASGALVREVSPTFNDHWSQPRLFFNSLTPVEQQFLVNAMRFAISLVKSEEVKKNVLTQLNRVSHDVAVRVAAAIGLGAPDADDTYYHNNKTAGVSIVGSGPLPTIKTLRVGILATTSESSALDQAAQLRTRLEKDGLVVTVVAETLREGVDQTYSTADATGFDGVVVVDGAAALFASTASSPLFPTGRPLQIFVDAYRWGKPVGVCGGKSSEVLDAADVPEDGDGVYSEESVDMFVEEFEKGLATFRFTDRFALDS
Protocol: (§1) All inhibition assays were performed in triplicate.

CATPO [8] = target: T7, CATPO (Mycothermus thermophilus, UniProt M4GGR5); assay: as above; type: biochemical; conditions: n = 3
T7 construct: recombinant, pET-28-TEV-CATPO; contains heme d; Rz 0.8
T7 sequence (M4GGR5 20-717): T6 sequence (M4GGR5 20-717 E503A) with A484E
Protocol: as §1

CATPO E484D variant [9] = target: T4, CATPO E484D variant; assay: biochemical
CATPO [10] = target: T2, CATPO; assay: Substrate-specificity analysis of the phenol oxidase activity; type: biochemical
CATPO E484A variant [11] = target: T5, CATPO E484A variant; assay: biochemical

CATPO T188A variant, sequence (M4GGR5 entry or part of it T207A): as the sequence (M4GGR5 entry or part of it T207F) above

Oc1cccc(O)c1O [Pyrogallol, pyrogallol]
V max (CATPO T188A variant): 16200 ± 410 mM/min
k cat/K m (CATPO T188A variant): 660 ± 88 s^−1 M^−1 (×10^2)
K m (CATPO T188A variant; pH 7.0 (ABTS pH 5.0), 60°C): 40 ± 1.0 mM
Ki (CATPO T188F variant [1]): 64 ± 6 mM
Ki (CATPO [2]): 4.2 ± 0.8 mM
V max (CATPO T188F variant [3]): 28100 ± 760 mM/min
k cat/K m (CATPO T188F variant [3]): 3930 ± 250 s^−1 M^−1 (×10^2)
K m (CATPO T188F variant [3]; pH 7.0 (ABTS pH 5.0), 60°C): 37 ± 0.5 mM
Ki (CATPO E484I variant [4]): 58 ± 1.8 mM
V max (CATPO E484D variant [5]): 16800 ± 300 mM/min
k cat/K m (CATPO E484D variant [5]): 600 ± 50 s^−1 M^−1 (×10^2)
K m (CATPO E484D variant [5]; pH 7.0 (ABTS pH 5.0), 60°C): 40 ± 0.5 mM
V max (CATPO E484A variant [6]): 50000 ± 156 mM/min
k cat/K m (CATPO E484A variant [6]): 6000 ± 50 s^−1 M^−1 (×10^2)
K m (CATPO E484A variant [6]; pH 7.0 (ABTS pH 5.0), 60°C): 36 ± 0.7 mM
V max (CATPO E484I variant [7]): 20300 ± 330 mM/min
k cat/K m (CATPO E484I variant [7]): 3060 ± 30 s^−1 M^−1 (×10^2)
K m (CATPO E484I variant [7]; pH 7.0 (ABTS pH 5.0), 60°C): 40 ± 1.1 mM
Ki (CATPO T188I variant): 62 ± 2.5 mM
K m (E484A): 36 ± 0.7 mM
K m (CATPO [8]): 40 ± 1.8 mM
Ki (CATPO E484D variant [9]): 4.1 ± 0.7 mM
V max (CATPO [10]): 18450 ± 451 mM/min
k cat/K m (CATPO [10]): 960 ± 65 s^−1 M^−1 (×10^2)
Ki (CATPO E484A variant [11]): 71 ± 4 mM
